Experimental data as given in patent publication US20040266747A1, “Long chain fatty alcohol substituents in antineoplastic agents” (priority 2001, published 2004).
Values after ≈ are worked out from the molar mass of the structure shown.

Tests used:
EA.hy 926 = assay: Cytotoxic activity, MTT colorimetric cell growth assay; assay type: cell-based; conditions: Homo sapiens; EA.hy 926 cells, 72 h cultivation with agent, 37° C.; read-out: Cell line and cyctotoxic acivity IC50, EA.hy 926
Protocol: (§1) Experiments were performed in microtiter plates (2×10^4 cells/cm^2) at 37° C. After a precultivation period of 24 h the antineoplastic agent was added and cultivation was continued for 72 h. Cell growth was determined by a colorimetric assay based on the conversion of 3-(4,5-dimethyl-2-thiazolyl)-2,5-diphenyltetrazolium (MMT) to a blue formazan product using live mitochondria according to Mosmann, J. Immunolog. Methods 1983, 65, 55.

MHEC 5T = assay: as above; assay type: cell-based; conditions: MHEC5-T; MHEC 5T cells, 72 h cultivation with agent, 37° C.; read-out: Cell line and cyctotoxic acivity IC50, MHEC 5T
Protocol: as §1

**Q.** What does the source list for `O=c1[nH]c(=O)n(COCCCCCCCCCCCCO)cc1F` [Compound 3b, 5-Fluoro-1-((12′-hydroxydodecyloxy)-methyl)-uracil]?
**A.** IC50 (EA.hy 926): 45 µg/mL (≈ 131 µM); IC50 (MHEC 5T): 14 µg/mL (≈ 40.6 µM)
